Results from PubChem BioAssay (NCI).
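Following 48 hours of exposure in 96-well plates, responses at five concentrations were used to interpolate endpoints linearly. TGI is the concentration that stops growth completely.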 Where a SMILES comes first, the peptide text is derived from it. The star is where a group is joined. Boc = CC(C)(C)OC(=O)*

Experiments:
Assay in all cases: growth of human tumour cells (NCI), 48 h
HCT-15 colon = tested on: HCT-15 colon
SK-MEL-28 melanoma = tested on: SK-MEL-28 melanoma
COLO 205 colon = tested on: COLO 205 colon
M14 melanoma = tested on: M14 melanoma
OVCAR-3 ovarian = tested on: OVCAR-3 ovarian
SF-268 CNS = tested on: SF-268 CNS
SF-295 CNS = tested on: SF-295 CNS
RPMI-8226 leukemia = tested on: RPMI-8226 leukemia
MDA-MB-231 breast = tested on: MDA-MB-231 breast
HL-60(TB) leukemia = tested on: HL-60(TB) leukemia
SNB-19 CNS = tested on: SNB-19 CNS
HCT-116 colon = tested on: HCT-116 colon
A549 NSCLC = tested on: A549 NSCLC
LOX IMVI melanoma = tested on: LOX IMVI melanoma
SW-620 colon = tested on: SW-620 colon
MALME-3M melanoma = tested on: MALME-3M melanoma
MOLT-4 leukemia = tested on: MOLT-4 leukemia
SK-OV-3 ovarian = tested on: SK-OV-3 ovarian
K-562 leukemia = tested on: K-562 leukemia
HOP-62 NSCLC = tested on: HOP-62 NSCLC
DU-145 prostate = tested on: DU-145 prostate
HCC-2998 colon = tested on: HCC-2998 colon
HOP-92 NSCLC = tested on: HOP-92 NSCLC
SR leukemia = tested on: SR leukemia
UACC-257 melanoma = tested on: UACC-257 melanoma
MDA-MB-435 = tested on: MDA-MB-435
SK-MEL-5 melanoma = tested on: SK-MEL-5 melanoma
EKVX NSCLC = tested on: EKVX NSCLC
ACHN renal = tested on: ACHN renal
HT29 colon = tested on: HT29 colon
NCI-H460 lung = tested on: NCI-H460 lung
IGROV1 ovarian = tested on: IGROV1 ovarian
T-47D breast = tested on: T-47D breast
TK-10 renal = tested on: TK-10 renal
NCI-H522 lung = tested on: NCI-H522 lung
MDA-N = tested on: MDA-N
CAKI-1 renal = tested on: CAKI-1 renal
MCF7 breast = tested on: MCF7 breast
PC-3 prostate = tested on: PC-3 prostate
OVCAR-4 ovarian = tested on: OVCAR-4 ovarian
OVCAR-8 ovarian = tested on: OVCAR-8 ovarian
CCRF-CEM leukemia = tested on: CCRF-CEM leukemia
UACC-62 melanoma = tested on: UACC-62 melanoma

CC(C)(C)OC(=O)NC(Cc1ccccc1)C(=O)N1CCCC1C(N)=O (stereo not drawn) (Boc-Phe-Pro-NH2; configuration not given here)
TGI (HCT-15 colon): > 100 µM | TGI (SK-MEL-28 melanoma): > 100 µM | TGI (COLO 205 colon): > 100 µM | TGI (M14 melanoma): > 100 µM | TGI (OVCAR-3 ovarian): > 100 µM | TGI (SF-268 CNS): > 100 µM | TGI (SF-295 CNS): > 100 µM | TGI (RPMI-8226 leukemia): > 100 µM | TGI (MDA-MB-231 breast): > 100 µM | TGI (HL-60(TB) leukemia): > 100 µM | TGI (SNB-19 CNS): > 100 µM | TGI (HCT-116 colon): > 100 µM | TGI (A549 NSCLC): > 100 µM | TGI (LOX IMVI melanoma): > 100 µM | TGI (SW-620 colon): > 100 µM | TGI (MALME-3M melanoma): > 100 µM | TGI (MOLT-4 leukemia): > 100 µM | TGI (SK-OV-3 ovarian): > 100 µM | TGI (K-562 leukemia): > 100 µM | TGI (HOP-62 NSCLC): > 100 µM | TGI (DU-145 prostate): > 100 µM | TGI (HCC-2998 colon): > 100 µM | TGI (HOP-92 NSCLC): 74 µM | TGI (SR leukemia): > 100 µM | TGI (UACC-257 melanoma): > 100 µM | TGI (MDA-MB-435): > 100 µM | TGI (SK-MEL-5 melanoma): > 100 µM | TGI (EKVX NSCLC): > 100 µM | TGI (ACHN renal): > 100 µM | TGI (HT29 colon): > 100 µM | TGI (NCI-H460 lung): > 100 µM | TGI (IGROV1 ovarian): > 100 µM | TGI (T-47D breast): > 100 µM | TGI (TK-10 renal): > 100 µM | TGI (NCI-H522 lung): > 100 µM | TGI (MDA-N): > 100 µM | TGI (CAKI-1 renal): > 100 µM | TGI (MCF7 breast): > 100 µM | TGI (PC-3 prostate): > 100 µM | TGI (OVCAR-4 ovarian): > 100 µM | TGI (OVCAR-8 ovarian): > 100 µM | TGI (CCRF-CEM leukemia): > 100 µM | TGI (UACC-62 melanoma): > 100 µM
